Measured values from patent publication EP1769804B1, “hPTH(1-34) for use in preventing or reducing the incidence or severity of vertebral and / or non vertebral fracture in a male human” (priority 1998, dated 2012).
Marks after values point to notes of the source that are not given here.

Key:
[1] = tested on: ovariectomized cynomolgus monkeys; settings: cynomolgus monkey, in vivo
Method: The live phase of the study used feral, adult (closed growth plates) cynomolgus primates (Macaca fascicularis), weighing 2.77±0.03 kg (mean ± standard error of the mean [SEM]). Monkeys were held in quarantine for 3 months, then started on a diet containing 0.3% calcium, 0.3% phosphate, and 250 IU vitamin D3/100 g diet, and given fluoridated water (1 ppm fluoride) ad libitum. The calcium content corresponded to 1734 mg calcium/2000 calories. After 1 month on the diet, animals were sorted into groups of 21 or 22, sham operated or ovariectomized. Once daily subcutaneous injections of vehicle (sham and ovariectomized controls) or rhPTH(1-34), at 1 µg/kg (PTH1) or 5 µg/kg (PTH5), were started 24 hours after ovariectomy. Animals were treated for either 18 months (PTH1 and PTHS), or for 12 months followed by withdrawal of treatment (PTH1-W and PTH5-W).

Ovariectomized Primates [2] = assay: Biomechanical measures of strength in the spine (lumbar vertebrae L-3 and L-4); assay type: in vivo, Macaca fascicularis; settings: for A (cross-sectional area) / E (Young's modulus) / Fy (yield force) / S (stiffness): L-3 and L-4 combined, mean ± SEM
Excerpt: (§1) Biomechanical tests were done on lumbar vertebrae L-3 to L-4, the femur neck, humerus midshaft, and on a cortical bone specimen machined from the femur diaphysis (measures defined in Table 2). Conventional static and dynamic histomorphometry were done (measures described in Table 6) on the humerus midshaft, lumbar vertebra L-2, femoral neck, femur midshaft, the radius midshaft and distal radius. Initial statistical analyses compared all groups to vehicle-treated ovariectomized controls. The data is suitable for additional exploratory analyses to examine dose dependency, effects of withdrawal, interactions between outcomes, and changes in time by methods known to those of skill in the art. All assays were conducted and determined by methods known in the art.

post-menopausal women = assay: Clinical trial: number of non-vertebral fractures; assay type: in vivo, Humans
Ovariectomized Primates [3] = assay: Biomechanical measures of cortical bone of the humerus midshaft; assay type: in vivo, Macaca fascicularis; settings: for Fy / S (stiffness) / t (average cortical thickness): humerus midshaft, mean ± SEM
Excerpt: as §1

[4] = PTH1-W: withdrawal for 6 months after 1 µg/kg for 12 months
[5] = PTH5-W: withdrawal for 6 months after 5 µg/kg for 12 months
[6] = compared to ovariectomized controls
[7] = PTH1-W: withdrawal after 1 µg/kg for 12 months
[8] = PTH5-W: withdrawal after 5 µg/kg for 12 months

For teriparatide [rhPTH(1-34)], the “sustained hypercalcemia or kidney pathology” value [1] was “no evidence of sustained hypercalcemia or kidney pathology”, the “A (cross-sectional area)” value (Ovariectomized Primates [2]; [4]) was 90.9±2.3 mm^2 and the “E (Young's modulus)” value (Ovariectomized Primates [2]; [4]) was 659±42 Mpa. The “Fy (yield force)” value (Ovariectomized Primates [2]; [4]) was 1899±73^a N, the “S (stiffness)” value (Ovariectomized Primates [2]; [4]) was 7401±432^a N/mm and the “E (Young's modulus)” value (Ovariectomized Primates [2]; PTH1: 1 µg/kg for 18 months) was 717±48^a Mpa. For the same substance, the “Fy (yield force)” value (Ovariectomized Primates [2]; PTH1: 1 µg/kg for 18 months) was 1915±105^a N, the “S (stiffness)” value (Ovariectomized Primates [2]; PTH1: 1 µg/kg for 18 months) was 7701 ± 474^a N/mm and the “A (cross-sectional area)” value (Ovariectomized Primates [2]; [5]) was 82.8±2.1 mm^2. For the same substance, the “E (Young's modulus)” value (Ovariectomized Primates [2]; [5]) was 698±41^a Mpa, the “Fy (yield force)” value (Ovariectomized Primates [2]; [5]) was 1792±39^a N and the “S (stiffness)” value (Ovariectomized Primates [2]; [5]) was 7074±314^a N/mm. The “A (cross-sectional area)” value (Ovariectomized Primates [2]; PTH5: 5 µg/kg for 18 months) was 87.3±2.7 mm^2, the “E (Young's modulus)” value (Ovariectomized Primates [2]; PTH5: 5 µg/kg for 18 months) was 759±36^a Mpa and the “Fy (yield force)” value (Ovariectomized Primates [2]; PTH5: 5 µg/kg for 18 months) was 2113±77^3.0 N. The “S (stiffness)” value (Ovariectomized Primates [2]; PTH5: 5 µg/kg for 18 months) was 8012 ±367^a N/mm, the “increase of strength (Fy) in the vertebrae” value (Ovariectomized Primates [2]; [6]) was “up to 43%” and the “number of non-vertebral fractures, Ankle” value (post-menopausal women; PTH-20 (N=541)) was 2. For the same substance, the “number of non-vertebral fractures, Foot” value (post-menopausal women; PTH-20 (N=541)) was 1, the “number of non-vertebral fractures, Hip” value (post-menopausal women; PTH-20 (N=541)) was 2 and the “number of non-vertebral fractures, Humerus” value (post-menopausal women; PTH-20 (N=541)) was 4. The “number of non-vertebral fractures, Other” value (post-menopausal women; PTH-20 (N=541)) was 14, the “number of non-vertebral fractures, Pelvis” value (post-menopausal women; PTH-20 (N=541)) was 1 and the “number of non-vertebral fractures, Radius” value (post-menopausal women; PTH-20 (N=541)) was 7. The “number of non-vertebral fractures, Ribs” value (post-menopausal women; PTH-20 (N=541)) was 5, the “number of non-vertebral fractures, Total” value (post-menopausal women; PTH-20 (N=541)) was 34 and the “number of non-vertebral fractures, Total w/o "Other"” value (post-menopausal women; PTH-20 (N=541)) was 21. For the same substance, the “number of non-vertebral fractures, Ankle” value (post-menopausal women; PTH-40 (N=552)) was 2, the “number of non-vertebral fractures, Foot” value (post-menopausal women; PTH-40 (N=552)) was 4 and the “number of non-vertebral fractures, Hip” value (post-menopausal women; PTH-40 (N=552)) was 3. For the same substance, the “number of non-vertebral fractures, Humerus” value (post-menopausal women; PTH-40 (N=552)) was 3, the “number of non-vertebral fractures, Other” value (post-menopausal women; PTH-40 (N=552)) was 9 and the “number of non-vertebral fractures, Pelvis” value (post-menopausal women; PTH-40 (N=552)) was 0. The “number of non-vertebral fractures, Radius” value (post-menopausal women; PTH-40 (N=552)) was 10, the “number of non-vertebral fractures, Ribs” value (post-menopausal women; PTH-40 (N=552)) was 5 and the “number of non-vertebral fractures, Total” value (post-menopausal women; PTH-40 (N=552)) was 32. The “number of non-vertebral fractures, Total w/o "Other"” value (post-menopausal women; PTH-40 (N=552)) was 24, the “measures in the cortical diaphysis of the humerus midshaft” value (Ovariectomized Primates [3]; [6]) was “did not alter” and the Fy (Ovariectomized Primates [3]; [7]) was 689 ± 23 N. The “S (stiffness)” value (Ovariectomized Primates [3]; [7]) was 573 ± 20 N/mm, the “t (average cortical thickness)” value (Ovariectomized Primates [3]; [7]) was 1.66 ± 0.04 mm and the Fy (Ovariectomized Primates [3]; PTH1: 1 µg/kg for 18 months) was 654 ± 23 N. For the same substance, the “S (stiffness)” value (Ovariectomized Primates [3]; PTH1: 1 µg/kg for 18 months) was 544 ± 23 N/mm, the “t (average cortical thickness)” value (Ovariectomized Primates [3]; PTH1: 1 µg/kg for 18 months) was 1.68 ± 0.03 mm and the Fy (Ovariectomized Primates [3]; [8]) was 707 ± 24 N. For the same substance, the “S (stiffness)” value (Ovariectomized Primates [3]; [8]) was 573 ± 24 N/mm, the “t (average cortical thickness)” value (Ovariectomized Primates [3]; [8]) was 1.72 ± 0.05 mm and the Fy (Ovariectomized Primates [3]; PTH5: 5 µg/kg for 18 months) was 680 ± 15^a N. For the same substance, the “S (stiffness)” value (Ovariectomized Primates [3]; PTH5: 5 µg/kg for 18 months) was 548 ± 18 N/mm and the “t (average cortical thickness)” value (Ovariectomized Primates [3]; PTH5: 5 µg/kg for 18 months) was 1.80 ± 0.04^a mm.
